Assay results taken from patent publication US6737383B1, “Herbicidal oxadiazolidines” (priority 1999, dated 2004).

Key:
soybean = experiment: Test B pre/postemergence soybean; type: in vivo, Glycine max
Method in brief: (§1)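 Test chemicals in a non-phytotoxic solvent mixture with surfactant were sprayed preemergence onto planted seeds and postemergence onto plants 2 to 18 cm tall (1- to 4-leaf stage). After twelve to sixteen days in a greenhouse, injury was visually rated against untreated controls from 0 (no effect) to 10 (complete control).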

duck salad = experiment: Test B flood test duck salad; type: in vivo, Heteranthera limosa; conditions: for Plant response rating, Ducksalad (0 to 10 scale, 0 is no effect, 10 is complete control) / Ducksalad plant response rating (0 to 10 scale, 0 is no effect, 10 is complete control): visual evaluation after twelve to sixteen days; for Ducksalad plant response rating (0 to 10 scale, 0 is no effect, 10 is complete control): under heading Pre-emergence
Method in brief: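 Each value is a visual injury score relative to controls, with 10 meaning complete control and 0 no effect. Evaluation took place twelve to sixteen days after the 2-leaf-stage plants were treated and kept in the greenhouse.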

corn = experiment: Test B pre/postemergence corn; type: in vivo, Zea mays
Method in brief: as §1

[1] = Postemergence, Rate 250 g/ha, scale 0 to 10
[2] = Preemergence, Rate 62 g/ha, scale of 0 to 10 where 0 is no effect and 10 is complete control
[3] = Preemergence, Rate 125 g/ha, scale of 0 to 10 where 0 is no effect and 10 is complete control
[4] = Preemergence, Rate 250 g/ha, scale 0 to 10, 0 is no effect, 10 is complete control
[5] = Preemergence, Rate 500 g/ha, scale 0 to 10, 0 is no effect, 10 is complete control
[6] = Rate 62 g/ha, Postemergence, scale 0 to 10 (0 no effect, 10 complete control)
[7] = Rate 125 g/ha, Postemergence, scale 0 to 10, 0 is no effect, 10 is complete control
[8] = Rate 62 g/ha, flood test species, Pre-emergence
[9] = Rate 125 g/ha, flood test species
[10] = Rate 250 g/ha, Pre-emergence (flood test species), scale 0 to 10, 0 is no effect, 10 is complete control
[11] = Rate 500 g/ha, Pre-emergence, flood test species, scale 0 to 10 (0 no effect, 10 complete control)
[12] = Postemergence, Rate 500 g/ha, scale of 0 to 10 where 0 is no effect and 10 is complete control
[13] = Postemergence, Rate 125 g/ha, scale of 0 to 10 where 0 is no effect and 10 is complete control
[14] = Postemergence, Rate 250 g/ha, scale of 0 to 10, 0 is no effect, 10 is complete control
[15] = Postemergence, Rate 1000 g/ha, scale 0 to 10 (0 no effect, 10 complete control)
[16] = Preemergence, Rate 250 g/ha, scale 0 to 10 (0 no effect, 10 complete control)
[17] = Preemergence, Rate 500 g/ha, scale of 0 to 10 where 0 is no effect and 10 is complete control
[18] = Rate 1000 g/ha, Preemergence, scale 0 to 10 (0 no effect, 10 complete control)
[19] = Rate 500 g/ha, Pre-emergence section of Table B, 0 to 10 scale (0 no effect, 10 complete control)
[20] = Postemergence, Rate 250 g/ha, scale 0 to 10, 0 is no effect, 10 is complete control
[21] = Preemergence, Rate 62 g/ha, scale 0 to 10 (0 no effect, 10 complete control)
[22] = Rate 62 g/ha, Postemergence, scale of 0 to 10 where 0 is no effect and 10 is complete control
[23] = Postemergence (flood test), Rate 125 g/ha, scale 0 to 10, 0 is no effect, 10 is complete control
[24] = Postemergence section (flood test species), Rate 500 g/ha, scale of 0 to 10 where 0 is no effect and 10 is complete control
[25] = Rate 62 g/ha, Postemergence (flood test species), scale of 0 to 10 where 0 is no effect and 10 is complete control
[26] = flood test species, listed under Postemergence, Rate 250 g/ha, scale 0 to 10, 0 is no effect, 10 is complete control
[27] = Postemergence, Rate 125 g/ha, scale 0 to 10, 0 is no effect, 10 is complete control
[28] = Postemergence, Rate 62 g/ha, scale 0 to 10, 0 is no effect, 10 is complete control

SMILES	Soybean plant response rating (soybean; [1])	Plant response rating, Soybean (soybean; [2])	Plant response rating, Soybean (soybean; [3])	Soybean plant response rating (soybean; [4])	Soybean plant response rating (soybean; [5])	Soybean plant response rating (soybean; [6])	Soybean plant response rating (soybean; [7])	Plant response rating, Ducksalad (0 to 10 scale, 0 is no effect, 10 is complete control) (duck salad; [8])	Ducksalad plant response rating (0 to 10 scale, 0 is no effect, 10 is complete control) (duck salad; [9])	Ducksalad plant response rating (duck salad; [10])	Ducksalad plant response rating (duck salad; [11])	Corn plant response rating (corn; [1])	Corn plant response rating (corn; [12])	Plant response rating, Corn (corn; [2])	Plant response rating, Corn (corn; [3])	Corn plant response rating (corn; [4])	Corn plant response rating (corn; [5])	Corn plant response rating (corn; [6])	Corn plant response rating (corn; [7])	Soybean plant response rating (soybean; [12])	further results
CC(C)N(C(=O)n1oc(=O)n(CCS(C)(=O)=O)c1=O)c1ccc(F)cc1 [Compound 453]	1	0	0	0	0	1	1	0	0	0	0	0	0	0	0	0	3	0	0		
CC(C)N(C(=O)n1oc(=O)n(C(CF)CF)c1=O)c1ccc(Cl)cc1 [Compound 468]	1	0	0	0	0	1	1	0	0	0	0	0	0	0	0	0	2	0	0		
COC(=O)C(C)n1c(=O)on(C(=O)N(c2ccc(Cl)cc2)C(C)C)c1=O (stereo not shown) [Compound 623]									0	0											Plant response rating, Soybean (soybean; [13]): 0; Soybean plant response rating (soybean; [14]): 0; Soybean plant response rating (soybean; [15]): 3; Soybean plant response rating (soybean; [3]): 0; Plant response rating, Soybean (soybean; [16]): 0; Plant response rating, Soybean (soybean; [17]): 0; Plant response rating, Soybean (soybean; [18]): 0; Ducksalad plant response rating (duck salad; Pre-emergence, Rate 1000 g/ha, scale 0 to 10 (0 no effect, 10 complete control)): 0; Ducksalad plant response rating (duck salad; [19]): 0; Plant response rating, Corn (corn; [13]): 0; Corn plant response rating (corn; [14]): 0; Plant response rating, Corn (corn; [12]): 0; Corn plant response rating (corn; [15]): 0; Corn plant response rating (corn; [3]): 0; Plant response rating, Corn (corn; [16]): 0; Plant response rating, Corn (corn; [17]): 0; Plant response rating, Corn (corn; [18]): 0
CCOC(=O)C=C(Cn1c(=O)on(C(=O)N(c2ccc(F)cc2)C(C)C)c1=O)OCC [Compound 396]			0	0	0								0		0	0	0			6	Plant response rating, Soybean (soybean; [20]): 3; Plant response rating, Soybean (soybean; [21]): 0; Soybean plant response rating (soybean; [22]): 2; Plant response rating, Ducksalad (duck salad; [23]): 0; Ducksalad plant response rating (duck salad; [24]): 0; Ducksalad plant response rating (duck salad; [25]): 0; Plant response rating, Ducksalad (duck salad; [26]): 0; Plant response rating, Corn (corn; [27]): 0; Plant response rating, Corn (corn; [20]): 0; Plant response rating, Corn (corn; [21]): 0; Corn plant response rating (corn; [22]): 0
COC(C)n1c(=O)on(C(=O)N(c2ccccc2)C(C)C)c1=O (stereo not shown) [Compound 441]	0	0	0	0	0	0	0	0	0	0	0	0	0	0	0	0	0	0	0	0	
CC(=O)C(C)n1c(=O)on(C(=O)N(c2ccc(F)cc2)C(C)C)c1=O (stereo not shown) [Compound 400]			0	0	0								0		0	2	2			4	Plant response rating, Soybean (soybean; [20]): 4; Plant response rating, Soybean (soybean; [21]): 0; Soybean plant response rating (soybean; [22]): 1; Plant response rating, Ducksalad (duck salad; [23]): 0; Ducksalad plant response rating (duck salad; [24]): 0; Ducksalad plant response rating (duck salad; [25]): 0; Plant response rating, Ducksalad (duck salad; [26]): 0; Plant response rating, Corn (corn; [27]): 0; Plant response rating, Corn (corn; [20]): 0; Plant response rating, Corn (corn; [21]): 0; Corn plant response rating (corn; [22]): 0
CC(C)N(C(=O)n1oc(=O)n(CC(=O)C2CC2)c1=O)c1ccc(Cl)cc1 [Compound 639]								0	0	0											Plant response rating, Soybean (soybean; [28]): 0; Plant response rating, Soybean (soybean; [13]): 0; Soybean plant response rating (soybean; [14]): 3; Soybean plant response rating (soybean; [2]): 0; Soybean plant response rating (soybean; [3]): 0; Plant response rating, Soybean (soybean; [16]): 0; Plant response rating, Soybean (soybean; [17]): 3; Ducksalad plant response rating (duck salad; [19]): 0; Plant response rating, Corn (corn; [28]): 0; Plant response rating, Corn (corn; [13]): 0; Corn plant response rating (corn; [14]): 0; Plant response rating, Corn (corn; [12]): 0; Corn plant response rating (corn; [2]): 0; Corn plant response rating (corn; [3]): 0; Plant response rating, Corn (corn; [16]): 0; Plant response rating, Corn (corn; [17]): 0
C=CC(CC)n1c(=O)on(C(=O)N(c2ccccc2)C(C)C)c1=O (stereo not shown) [Compound 455]	4	0	0	0	2	1	2	0	0	0	0	0	0	0	2	4	7	0	0		
CC(C)N(C(=O)n1oc(=O)n(C(C)C#N)c1=O)c1ccc(F)cc1F (stereo not shown) [Compound 432]	2		0	0	0		1					0	0		0	0	0		0	2	Plant response rating, Soybean (soybean; [21]): 0; Ducksalad plant response rating (duck salad; Postemergence block (flood test species), Rate 250 g/ha, scale 0 to 10): 0; Ducksalad plant response rating (duck salad; [24]): 0; Ducksalad plant response rating (duck salad; [25]): 0; Ducksalad plant response rating (duck salad; Rate 125 g/ha, Postemergence section (flood test species), scale 0 to 10, 0 is no effect, 10 is complete control): 0; Plant response rating, Corn (corn; [21]): 0; Corn plant response rating (corn; [22]): 0
